Measurements taken from paper PMC3187794, “Insights into the Complex Formed by Matrix Metalloproteinase-2 and Alloxan Inhibitors: Molecular Dynamics Simulations and Free Energy Calculations” (PLoS ONE, 2011).

What was measured:
Assay type in all cases: biochemical
MMP-9 = MMP-9 (Homo sapiens, UniProt P14780); assay: MMP inhibition fluorimetric assay (pro-fluorescing peptide substrate), MMP-9
Protocol: (§1) Inhibitory activities were determined by a fluorimetric assay, where a pro-fluorescing peptide was used as substrate of MMP, and the fluorogenic activity of its cleavage product was measured after co-incubation with test compounds.

MMP-8 = MMP-8 (Homo sapiens, UniProt P22894); assay: MMP inhibition fluorimetric assay (pro-fluorescing peptide substrate), MMP-8
Sequence of MMP-8 (P22894 101-467, species assumed): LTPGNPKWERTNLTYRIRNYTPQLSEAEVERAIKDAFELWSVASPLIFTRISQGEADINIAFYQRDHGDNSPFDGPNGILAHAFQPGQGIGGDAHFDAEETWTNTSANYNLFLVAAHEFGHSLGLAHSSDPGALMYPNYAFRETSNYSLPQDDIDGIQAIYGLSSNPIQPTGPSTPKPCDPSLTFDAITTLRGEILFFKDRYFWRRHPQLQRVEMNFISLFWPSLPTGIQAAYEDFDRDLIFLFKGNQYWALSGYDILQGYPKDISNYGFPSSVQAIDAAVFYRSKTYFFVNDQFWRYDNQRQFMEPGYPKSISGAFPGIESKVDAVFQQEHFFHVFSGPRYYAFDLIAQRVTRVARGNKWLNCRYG
Protocol: as §1

MMP-2 = target: T1, MMP-2 (Homo sapiens, UniProt P08253); assay: MMP inhibition fluorimetric assay (pro-fluorescing peptide substrate), MMP-2
T1 sequence (P08253 110-660): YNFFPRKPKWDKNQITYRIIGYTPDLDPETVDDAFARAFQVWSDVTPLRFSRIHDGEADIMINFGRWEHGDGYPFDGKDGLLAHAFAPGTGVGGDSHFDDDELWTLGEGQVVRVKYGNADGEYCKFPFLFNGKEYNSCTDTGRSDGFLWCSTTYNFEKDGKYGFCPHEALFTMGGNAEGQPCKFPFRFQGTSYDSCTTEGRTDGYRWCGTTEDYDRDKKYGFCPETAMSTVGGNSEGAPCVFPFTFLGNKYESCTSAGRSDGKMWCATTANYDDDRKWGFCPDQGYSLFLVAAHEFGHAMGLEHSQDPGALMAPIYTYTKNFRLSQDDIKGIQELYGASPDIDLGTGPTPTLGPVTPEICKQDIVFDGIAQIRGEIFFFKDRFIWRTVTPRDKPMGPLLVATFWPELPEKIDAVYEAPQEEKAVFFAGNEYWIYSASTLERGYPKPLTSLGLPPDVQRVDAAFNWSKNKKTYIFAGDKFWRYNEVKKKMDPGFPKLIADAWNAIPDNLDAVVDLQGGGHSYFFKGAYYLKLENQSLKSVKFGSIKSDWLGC
Protocol: as §1

Sequence of MMP-9 (P14780 94-707, species assumed): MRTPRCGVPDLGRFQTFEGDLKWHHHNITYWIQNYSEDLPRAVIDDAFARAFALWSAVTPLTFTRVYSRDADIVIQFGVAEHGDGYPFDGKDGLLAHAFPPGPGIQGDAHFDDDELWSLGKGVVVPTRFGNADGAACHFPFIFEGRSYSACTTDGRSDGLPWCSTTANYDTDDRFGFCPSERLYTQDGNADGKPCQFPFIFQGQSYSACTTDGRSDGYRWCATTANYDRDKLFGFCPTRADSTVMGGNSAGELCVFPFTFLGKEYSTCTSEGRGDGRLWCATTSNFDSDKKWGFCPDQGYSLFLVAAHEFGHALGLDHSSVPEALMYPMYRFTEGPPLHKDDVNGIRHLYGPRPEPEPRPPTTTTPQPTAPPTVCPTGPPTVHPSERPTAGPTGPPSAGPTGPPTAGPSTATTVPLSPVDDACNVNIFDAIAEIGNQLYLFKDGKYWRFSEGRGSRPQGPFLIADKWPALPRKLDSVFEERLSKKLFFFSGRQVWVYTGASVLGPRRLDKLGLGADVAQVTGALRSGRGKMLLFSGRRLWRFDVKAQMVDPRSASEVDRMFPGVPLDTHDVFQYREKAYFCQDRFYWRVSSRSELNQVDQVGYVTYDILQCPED

| Structure (SMILES) | IC50 (MMP-9) [µM] | IC50 (MMP-8) [µM] | IC50 (MMP-2) [µM] | selectivity towards MMP-2, as compared to MMP-9 (MMP-2; MMP-2 vs MMP-9) | inhibition at 100 µM (MMP-9) [%] | inhibition at 100 µM (MMP-8) [%] | inhibition at 100 µM (MMP-2) [%] |
| --- | --- | --- | --- | --- | --- | --- | --- |
| NC(=O)c1ccc(-c2ccc(C(=O)CC3(O)C(=O)NC(=O)NC3=O)cc2)cc1 [BAM] | 1.82 | 0.589 | 0.0871 | > 20 | – | – | – |
| O=C1NC(=O)C(O)(CC(=O)c2ccc(-c3ccccc3)cc2)C(=O)N1 [BAR] | 0.513 | 0.263 | 0.182 | – | – | – | – |
| O=C1NC(=O)C(O)(CC(=O)c2ccc(-c3cccc(Cl)c3)cc2)C(=O)N1 [BCL] | 20 | 4.47 | 60.3 | – | – | – | – |
| O=c1[nH]c(=O)c2cc(-c3ccccc3)nnc2[nH]1 [compound 1] | – | – | – | – | 5 | 0 | 0 |
| O=c1[nH]c(=O)c2cc(-c3ccc(C(F)(F)F)cc3)nnc2[nH]1 [compound 2] | – | – | – | – | 27 | 14 | 12 |
| O=C1NC(=O)C(O)(CC(=O)c2ccccc2)C(=O)N1 [compound 3] | 44.7 | 42.7 | – | – | – | – | 0 |
| O=C1NC(=O)C(O)(CC(=O)c2ccc(C(F)(F)F)cc2)C(=O)N1 [compound 4] | – | 8.13 | 38.9 | – | 51 | – | – |
| COc1ccc(C(=O)CC2(O)C(=O)NC(=O)NC2=O)cc1 [compound 5] | 12.9 | 6.76 | 21.4 | – | – | – | – |
| O=C1NC(=O)C(O)(CC(=O)c2ccc([N+](=O)[O-])cc2)C(=O)N1 [compound 6] | – | 631 | – | – | 8 | – | 0 |
